According to PubChem BioAssay AID2060901 (Molecular Pharmacology Branch, DTP, NCI, 2025):
Each block holds one compound with its values, some of them ahead of it.

System: 422866-222-R5-J1-PDC complex spheroids viability
Assay: Anticancer human tumor 422866-222-R5-J1-PDC patient-derived pancreatic adenocarcinoma cell line growth inhibition [RAS]
Conditions: for IC50: curve of first compound; for viability, T/C: stronger effect = lower value
Outline: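 Agents were tested in combination matrices in half-log decrements from a top concentration at or near clinical Cmax (10 microM if undetermined). Targets were multi-cell spheroids of tumour lines plus HUVEC and MSC stromal cells.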
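Further: spheroids exposed to compounds for 7 days.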
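Wherever viability, T/C is given: 100% = DMSO vehicle control viability.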

- IC50 (second compound 0.000949 µM): < 31.6 nM
- IC50 (second compound 0.003 µM): < 31.6 nM
- IC50 (second compound 0.00949 µM): < 31.6 nM
- IC50 (second compound 0.03 µM): < 31.6 nM
- IC50 (second compound 0.0949 µM): < 31.6 nM
- IC50 (second compound 0.3 µM): < 31.6 nM
Structure (SMILES): NC1c2ccccc2OC12CCN(c1cnc3c(N4CCCc5ncccc54)n[nH]c3n1)CC2 (centres undefined) + CCn1c(-c2cccnc2C(C)OC)c2c3cc(ccc31)N1CCOC(CC(NC(=O)C(C(C)C)N(C)C(=O)C3(F)CCN(C(=O)C#CC(C)(C)N(C)C)CC3)C(=O)N3CCCC(N3)C(=O)OCC(C)(C)C2)C1
- viability, T/C (second compound 0.000949 µM, first compound 0.0316 µM): 20.1%
- viability, T/C (second compound 0.000949 µM, first compound 0.1 µM): 18.2%
- viability, T/C (second compound 0.000949 µM, first compound 0.316 µM): 14.9%
- viability, T/C (second compound 0.000949 µM, first compound 1 µM): 16.1%
- viability, T/C (second compound 0.000949 µM, first compound 3.16 µM): 18.1%
- viability, T/C (second compound 0.000949 µM, first compound 10 µM): 15.7%
- viability, T/C (second compound 0.003 µM, first compound 0.0316 µM): 16%
- viability, T/C (second compound 0.003 µM, first compound 0.1 µM): 12.6%
- viability, T/C (second compound 0.003 µM, first compound 0.316 µM): 14.4%
- viability, T/C (second compound 0.003 µM, first compound 1 µM): 14.4%
- viability, T/C (second compound 0.003 µM, first compound 3.16 µM): 13.5%
- viability, T/C (second compound 0.003 µM, first compound 10 µM): 15.1%
- viability, T/C (second compound 0.00949 µM, first compound 0.0316 µM): 17.7%
- viability, T/C (second compound 0.00949 µM, first compound 0.1 µM): 14.1%
- viability, T/C (second compound 0.00949 µM, first compound 0.316 µM): 13.7%
- viability, T/C (second compound 0.00949 µM, first compound 1 µM): 14.3%
- viability, T/C (second compound 0.00949 µM, first compound 3.16 µM): 13.8%
- viability, T/C (second compound 0.00949 µM, first compound 10 µM): 15.8%
- viability, T/C (second compound 0.03 µM, first compound 0.0316 µM): 15.8%
- viability, T/C (second compound 0.03 µM, first compound 0.1 µM): 12.8%
- viability, T/C (second compound 0.03 µM, first compound 0.316 µM): 14.3%
- viability, T/C (second compound 0.03 µM, first compound 1 µM): 12.9%
- viability, T/C (second compound 0.03 µM, first compound 3.16 µM): 12.9%
- viability, T/C (second compound 0.03 µM, first compound 10 µM): 13.6%
- viability, T/C (second compound 0.0949 µM, first compound 0.0316 µM): 12.8%
- viability, T/C (second compound 0.0949 µM, first compound 0.1 µM): 13.3%
- viability, T/C (second compound 0.0949 µM, first compound 0.316 µM): 13.6%
- viability, T/C (second compound 0.0949 µM, first compound 1 µM): 13%
- viability, T/C (second compound 0.0949 µM, first compound 3.16 µM): 12.6%
- viability, T/C (second compound 0.0949 µM, first compound 10 µM): 13.4%
- viability, T/C (second compound 0.3 µM, first compound 0.0316 µM): 11.3%
- viability, T/C (second compound 0.3 µM, first compound 0.1 µM): 13.4%
- viability, T/C (second compound 0.3 µM, first compound 0.316 µM): 13.9%
- viability, T/C (second compound 0.3 µM, first compound 1 µM): 11.3%
- viability, T/C (second compound 0.3 µM, first compound 3.16 µM): 14.2%
- viability, T/C (second compound 0.3 µM, first compound 10 µM): 17.4%

- IC50 (second compound 0.00316 µM): < 31.6 nM
- IC50 (second compound 0.01 µM): < 31.6 nM
- IC50 (second compound 0.0316 µM): < 31.6 nM
- IC50 (second compound 0.1 µM): < 31.6 nM
- IC50 (second compound 0.316 µM): < 31.6 nM
- IC50 (second compound 1 µM): < 31.6 nM
Structure (SMILES): NC1c2ccccc2OC12CCN(c1cnc3c(N4CCCc5ncccc54)n[nH]c3n1)CC2 (centres undefined) + C=CC(=O)N1CCN(c2nc(OCC3CCCN3C)nc3c(F)c(-c4nc(N)cc(C)c4C(F)(F)F)c(Cl)cc23)C(C)C1
- viability, T/C (second compound 0.00316 µM, first compound 0.0316 µM): 21.3%
- viability, T/C (second compound 0.00316 µM, first compound 0.1 µM): 17.9%
- viability, T/C (second compound 0.00316 µM, first compound 0.316 µM): 18.1%
- viability, T/C (second compound 0.00316 µM, first compound 1 µM): 16.3%
- viability, T/C (second compound 0.00316 µM, first compound 3.16 µM): 13.4%
- viability, T/C (second compound 0.00316 µM, first compound 10 µM): 16.3%
- viability, T/C (second compound 0.01 µM, first compound 0.0316 µM): 20.1%
- viability, T/C (second compound 0.01 µM, first compound 0.1 µM): 17.6%
- viability, T/C (second compound 0.01 µM, first compound 0.316 µM): 13.2%
- viability, T/C (second compound 0.01 µM, first compound 1 µM): 16.3%
- viability, T/C (second compound 0.01 µM, first compound 3.16 µM): 15.4%
- viability, T/C (second compound 0.01 µM, first compound 10 µM): 16.6%
- viability, T/C (second compound 0.0316 µM, first compound 0.0316 µM): 20.4%
- viability, T/C (second compound 0.0316 µM, first compound 0.1 µM): 18.5%
- viability, T/C (second compound 0.0316 µM, first compound 0.316 µM): 13.9%
- viability, T/C (second compound 0.0316 µM, first compound 1 µM): 14.5%
- viability, T/C (second compound 0.0316 µM, first compound 3.16 µM): 15.9%
- viability, T/C (second compound 0.0316 µM, first compound 10 µM): 14.8%
- viability, T/C (second compound 0.1 µM, first compound 0.0316 µM): 18.3%
- viability, T/C (second compound 0.1 µM, first compound 0.1 µM): 15.1%
- viability, T/C (second compound 0.1 µM, first compound 0.316 µM): 15.3%
- viability, T/C (second compound 0.1 µM, first compound 1 µM): 12.8%
- viability, T/C (second compound 0.1 µM, first compound 3.16 µM): 16.3%
- viability, T/C (second compound 0.1 µM, first compound 10 µM): 14.2%
- viability, T/C (second compound 0.316 µM, first compound 0.0316 µM): 18.4%
- viability, T/C (second compound 0.316 µM, first compound 0.1 µM): 16.6%
- viability, T/C (second compound 0.316 µM, first compound 0.316 µM): 14.5%
- viability, T/C (second compound 0.316 µM, first compound 1 µM): 13.6%
- viability, T/C (second compound 0.316 µM, first compound 3.16 µM): 14.2%
- viability, T/C (second compound 0.316 µM, first compound 10 µM): 12.9%
- viability, T/C (second compound 1 µM, first compound 0.0316 µM): 18.7%
- viability, T/C (second compound 1 µM, first compound 0.1 µM): 14.1%
- viability, T/C (second compound 1 µM, first compound 0.316 µM): 16.4%
- viability, T/C (second compound 1 µM, first compound 1 µM): 15.8%
- viability, T/C (second compound 1 µM, first compound 3.16 µM): 14.9%
- viability, T/C (second compound 1 µM, first compound 10 µM): 15.9%
